# Measured values: patent US9810687B2, “Nanocomposites and methods of making same” (BOARD OF TRUSTEES OF THE UNIVERSITY OF ARKANSAS, priority 2013, dated 2017)
# Key:
# [1] = system: human pancreatic cancer cell line Panc-1; test: Anticancer/apoptotic effects of PTL, DMAPT and their fGn complexes; conditions: drug alone or as mixture with fGn
# Protocol: A water-soluble PTL analog, dimethylaminoparthenolide (DMAPT), was also examined for comparison with the anticancer efficacy of our PTL-fGn complex.
# PTL was obtained from Sigma-Aldrich (USA). […] PTL and DMAPT were dissolved in DMSO to create 10 mM stock solutions. To create the PTL-fGn and DMAPT-fGn complexes, the drug was added to fGn solution in media (final drug-fGn complex concentrations were 1, 10, 20, 30, 50, and 100 mM drug and 10 mg/ml fGn), sonicated for 1 h, and then stored at 4° C. before being incubated with cancer cell, such as, Panc-1 cells, or being delivered to a patient.
# [2] = system: MCF-7; test: Cytotoxicity of GA delivered by Gn and SWCNT, breast cancer cells; assay type: cell-based, human; conditions: breast cancer cells in vitro
# Protocol: (§1) In this example, Gn and SWCNT were used to deliver the natural low-toxicity drug GA to breast and pancreatic cancer cells in vitro, and the effectiveness of this complex in suppressing cellular integrity was assessed. Cytotoxicity was assessed by measuring lactate dehydrogenase release, mitochondria dehydrogenase activity, mitochondrial membrane depolarization, DNA fragmentation, intracellular lipid content, and membrane permeability/caspase activity. […] This analysis represents a first step toward assessing their effectiveness in more complex, targeted, nanodelivery systems.
# (§2) Gn and SWCNT (10 μg/ml) were mixed with GA (0.5, 0.75 and 1 μg/ml) to be described as GA+Gn and GA+SWCNT. First, the samples were vortexed at a high speed for at least 4 h to allow the drug to bind to the nanomaterials via π-π stacking. […] The loading concentrations of the GA on Gn and SWCNT were determined by UV-Vis absorbance at 360 nm measured using a Shimadzu UV-3600 spectrophotometer (Shimadzu Scientific Instruments, Colombia, Me., USA).
# (§3) The amount of drug loaded was calculated by peak absorbance at 360 nm after subtracting the background of absorbance from Gn and SWCNT. It is determined that, after vortexing, 98% of the free GA was bound to the Gn (GA−Gn=0.98: 10 μg/ml) and that 88% was bound to the SWCNT (GA−SWCNT=0.88: 10 μg/ml).
# [3] = system: Panc-1; test: Cytotoxicity of GA delivered by Gn and SWCNT, pancreatic cancer cells; assay type: cell-based, human; conditions: pancreatic cancer cells in vitro
# Protocol: as §1, §2, §3
compound,measurement,setting,value
"C/C1=C\CC[C@@]2(C)O[C@@H]2[C@H]2OC(=O)[C@H](CN(C)C)[C@@H]2CC1 [DMAPT, dimethylaminoparthenolide]",IC50,[1],significantly higher than that for PTL-fGn
"CC(C)=CCC[C@]1(C)C=Cc2c(O)c3c(c(CC=C(C)C)c2O1)O[C@]12C(=C[C@@H]4C[C@H]1C(C)(C)O[C@@]2(C/C=C(/C)C(=O)O)C4=O)C3=O [GA, Gambogic Acid]",antiproliferative effects upon nanodelivery,[2],significantly enhanced
same,antiproliferative effects upon nanodelivery,[3],significantly enhanced
